Measurements: patent US20230381157A1, “RIFABUTIN FOR THE TREATMENT OF ACINETOBACTER BAUMANNII” (University of Southern California, priority 2018, published 2023)
≈ marks a conversion by molar mass, not a printed value. Entries after “also recorded” stand apart in the source; their conditions may differ. Where two headings read alike, the source gives them in different places.

Legend:
A. baumannii = assay: MIC, broth microdilution, A. baumannii clinical isolates / strain panel; assay type: cell-based, Acinetobacter baumannii; settings: for MIC50 / MIC90: A. baumannii strain panel
K. pneumonia = assay: MIC, broth microdilution; assay type: cell-based; settings: Klebsiella pneumoniae, K. pneumonia KPC-KP1
A. baumannii HUMC1 [1] = assay: Time kill assay in RPMI with or without amino acids; assay type: cell-based, Acinetobacter baumannii; settings: RPMI alone vs RPMI with amino acids; 8 and 24 hrs
A. baumannii HUMC1 [2] = assay type: in vivo, mouse; settings: for lung CFUs: lungs at 24 hrs post infection
E. coli JJ1886 = assay type: cell-based, Escherichia coli; settings: TSA
[3] = 5 mg/kg/daily for 3 days, oral gavage
[4] = 5 mg/kg/daily for 3 days, oral gavage, listed as RBT

Q: With `CO[C@H]1/C=C/O[C@@]2(C)Oc3c(C)c(O)c4c(c3C2=O)C2=NC3(CCN(CC(C)C)CC3)NC2=C(NC(=O)/C(C)=C\C=C\[C@H](C)[C@H](O)[C@@H](C)[C@@H](O)[C@@H](C)[C@H](OC(C)=O)[C@@H]1C)C4=O` [rifabutin] as the compound, how does the “fold more potent than rifampin (RIF)” value (A. baumannii; A. baumannii, RPMI with serum) read?
A: Its value is 133 fold.

Q: What about the Rifabutin MIC (A. baumannii; AB044, MHII) of the same compound?
A: Its Rifabutin MIC is 3.12 µg/mL.

Q: What about the Rifabutin MIC (A. baumannii; AB044, RPMI) of the same compound?
A: The Rifabutin MIC was 0.78 µg/mL.

Q: And the Rifabutin MIC (A. baumannii; AB046, MHII)?
A: Its Rifabutin MIC is 0.19 µg/mL.

Q: What about the Rifabutin MIC (A. baumannii; AB046, MHII (first line)) of the same compound?
A: Its Rifabutin MIC is 6.25 µg/mL.

Q: And the Rifabutin MIC (A. baumannii; AB307-0294, MHII)?
A: The Rifabutin MIC was 6.25 µg/mL.

Q: And the Rifabutin MIC (A. baumannii; AB307-0294, RPMI)?
A: Its Rifabutin MIC is under 0.05 µg/mL.

Q: And the Rifabutin MIC (A. baumannii; AB15827, MHII)?
A: Its Rifabutin MIC is 3.13 µg/mL.

Q: What about the Rifabutin MIC (A. baumannii; AB15827, RPMI) of the same compound?
A: The Rifabutin MIC was 0.2 µg/mL.

Q: And the Rifabutin MIC (A. baumannii; ARLG-1314, MHII)?
A: The Rifabutin MIC was 6.25 µg/mL.

Q: What about the Rifabutin MIC (A. baumannii; ARLG-1314, RPMI) of the same compound?
A: Its Rifabutin MIC is under 0.05 µg/mL.

Q: What about the Rifabutin MIC (A. baumannii; ARLG-1777, MHII) of the same compound?
A: The Rifabutin MIC was 6.25 µg/mL.

Q: And the Rifabutin MIC (A. baumannii; ARLG-1777, RPMI)?
A: The Rifabutin MIC was 3.13 µg/mL.

Q: And the Rifabutin MIC (A. baumannii; ARLG-1915, MHII)?
A: Its Rifabutin MIC is 3.13 µg/mL.

Q: And the Rifabutin MIC (A. baumannii; ARLG-1915, RPMI)?
A: The Rifabutin MIC was 0.1 µg/mL.

Q: And the Rifabutin MIC (A. baumannii; ATCC 17978, MHII)?
A: Its Rifabutin MIC is 3.12 µg/mL.

Q: What about the Rifabutin MIC (A. baumannii; ATCC 17978, RPMI) of the same compound?
A: Its Rifabutin MIC is under 0.05 µg/mL.

Q: And the MIC (A. baumannii; Acinetobacter baumannii, A. baumannii (strain not named), MHII)?
A: Its MIC is 4 µg/mL (≈ 4.72 µM).

Q: What about the MIC (A. baumannii; Acinetobacter baumannii, A. baumannii (strain not named), RPMI with serum) of the same compound?
A: The MIC was 0.031 µg/mL (≈ 0.0366 µM).

Q: And the MIC (A. baumannii; Acinetobacter baumannii, A. baumannii VA-AB21, MHII)?
A: Its MIC is 3.12 µg/mL (≈ 3.69 µM).

Q: And the MIC (A. baumannii; Acinetobacter baumannii, A. baumannii VA-AB21, RPMI)?
A: Its MIC is 0.391 µg/mL (≈ 0.462 µM).

Q: What about the MIC50 (A. baumannii; Acinetobacter baumannii, CAMHB) of the same compound?
A: The MIC50 was 3.13 µg/mL (≈ 3.7 µM).

Q: What about the MIC90 (A. baumannii; Acinetobacter baumannii, CAMHB) of the same compound?
A: Its MIC90 is 6.25 µg/mL (≈ 7.38 µM).

Q: What about the MIC50 (A. baumannii; Acinetobacter baumannii, RPMI) of the same compound?
A: The MIC50 was 0.39 µg/mL (≈ 0.46 µM).

Q: What about the MIC90 (A. baumannii; Acinetobacter baumannii, RPMI) of the same compound?
A: The MIC90 was 3.13 µg/mL (≈ 3.7 µM).

Q: And the MIC (A. baumannii; Acinetobacter baumannii, ATCC17978, A. baumannii ATCC17978 and HUMC1, MHII)?
A: The MIC was 2 µg/mL (≈ 2.36 µM).

Q: What about the MIC (A. baumannii; Acinetobacter baumannii, ATCC17978, A. baumannii ATCC17978 and HUMC1, RPMI) of the same compound?
A: The MIC was under 0.0625 µg/mL.

Q: What about the “fold lower MIC in RPMI than in Mueller-Hinton-based medium (CAMHB)” value (A. baumannii; Acinetobacter baumannii, up to) of the same compound?
A: Its value is “up to 200 fold”.

Q: What about the Rifabutin MIC (A. baumannii; HUMC6, MHII) of the same compound?
A: The Rifabutin MIC was 25 µg/mL.

Q: What about the Rifabutin MIC (A. baumannii; HUMC6, RPMI) of the same compound?
A: Its Rifabutin MIC is 3.13 µg/mL.

Q: And the Rifabutin MIC (A. baumannii; HUMC10, MHII)?
A: Its Rifabutin MIC is 12.5 µg/mL.

Q: And the Rifabutin MIC (A. baumannii; HUMC10, RPMI)?
A: The Rifabutin MIC was under 0.05 µg/mL.

Q: What about the Rifabutin MIC (A. baumannii; LAC -- 4, MHII) of the same compound?
A: Its Rifabutin MIC is 0.78 µg/mL.

Q: What about the Rifabutin MIC (A. baumannii; LAC -- 4, RPMI) of the same compound?
A: The Rifabutin MIC was 1.56 µg/mL.

Q: And the Rifabutin MIC (A. baumannii; LACUSC-01, MHII)?
A: Its Rifabutin MIC is 6.25 µg/mL.

Q: And the Rifabutin MIC (A. baumannii; LACUSC-01, RPMI)?
A: The Rifabutin MIC was under 0.05 µg/mL.

Q: And the Rifabutin MIC (A. baumannii; NIH1, MHII)?
A: The Rifabutin MIC was 3.13 µg/mL.

Q: What about the Rifabutin MIC (A. baumannii; NIH1, RPMI) of the same compound?
A: Its Rifabutin MIC is 3.13 µg/mL.

Q: What about the Rifabutin MIC (A. baumannii; UH118, MHII) of the same compound?
A: Its Rifabutin MIC is 3.13 µg/mL.

Q: And the Rifabutin MIC (A. baumannii; UH118, RPMI)?
A: The Rifabutin MIC was 0.2 µg/mL.

Q: What about the Rifabutin MIC (A. baumannii; UH516, MHII) of the same compound?
A: The Rifabutin MIC was over 25 µg/mL.

Q: And the Rifabutin MIC (A. baumannii; UH516, RPMI)?
A: The Rifabutin MIC was over 25 µg/mL.

Q: What about the Rifabutin MIC (A. baumannii; UH2207, MHII) of the same compound?
A: Its Rifabutin MIC is 6.25 µg/mL.

Q: And the Rifabutin MIC (A. baumannii; UH2207, RPMI)?
A: Its Rifabutin MIC is 3.13 µg/mL.

Q: And the Rifabutin MIC (A. baumannii; UH6507, MHII)?
A: Its Rifabutin MIC is 3.13 µg/mL.

Q: And the Rifabutin MIC (A. baumannii; UH6507, RPMI)?
A: The Rifabutin MIC was 0.39 µg/mL.

Q: What about the Rifabutin MIC (A. baumannii; VA-AB21, MHII) of the same compound?
A: Its Rifabutin MIC is 3.12 µg/mL.

Q: And the Rifabutin MIC (A. baumannii; VA-AB21, RPMI)?
A: Its Rifabutin MIC is 0.391 µg/mL.

Q: What about the Rifabutin MIC (A. baumannii; VA-AB74, MHII) of the same compound?
A: The Rifabutin MIC was 6.25 µg/mL.

Q: And the Rifabutin MIC (A. baumannii; VA-AB74, RPMI)?
A: The Rifabutin MIC was 3.13 µg/mL.

Q: And the MIC (K. pneumonia; MHII)?
A: The MIC was 25 µg/mL (≈ 29.5 µM).

Q: And the MIC (K. pneumonia; RPMI)?
A: The MIC was 12.5 µg/mL (≈ 14.8 µM).

Q: What about the “reduction in CFUs (time kill)” value (A. baumannii HUMC1 [1]) of the same compound?
A: The value was “greater reduction in CFUs”.

Q: And the survival (A. baumannii HUMC1 [2]; 5 mg/kg for 3 days, […])?
A: Its survival is “about 80%”.

Q: What about the survival (A. baumannii HUMC1 [2]; [3]) of the same compound?
A: The survival was “significantly improved”.

Q: And the survival (A. baumannii HUMC1 [2]; [4])?
A: Its survival is “significantly improved survival”.

Q: And the “lung CFUs” value (A. baumannii HUMC1 [2]; [3])?
A: Its value is “significantly lower CFUs in the lung”.

Q: What about the “lung CFUs” value (A. baumannii HUMC1 [2]; [4]) of the same compound?
A: The value was “significantly reduced lung CFUs; also recorded: significantly lower CFUs in the lung”.

Q: What about the survival (A. baumannii HUMC1 [2]; 10 mg/kg/day for 3 days, oral gavage, listed as RBT) of the same compound?
A: Its survival is “modest improvement in survival; also recorded: modest survival benefit”.

Q: What about the “reduction in the median CFUs in the blood as compared to RIF-treated mice” value (A. baumannii HUMC1 [2]; 10 mg/kg/day for 3 days, at 24 hours) of the same compound?
A: Its value is 7 log.

Q: What about the “CFUs in blood (vs RIF)” value (A. baumannii HUMC1 [2]; C3H mice, 10 mg/kg/daily for 3 days, oral gavage, blood at 24 hrs) of the same compound?
A: Its value is “significant reduction in CFUs”.

Q: And the “improvement of survival rates” value (A. baumannii HUMC1 [2]; murine pneumonia, 5 mg/kg)?
A: The value was “over 70%”.

Q: What about the bacterial burden (A. baumannii HUMC1 [2]; murine pneumonia, 5 mg/kg, day 7 post-infection) of the same compound?
A: The bacterial burden was “about 2 Log10(CFU/mg lung)”.

Q: And the “Mutation Frequency” value (E. coli JJ1886)?
A: The value was 3.89E−08.
